In ChEMBL document CHEMBL5360641, “4'-Ethynyl-2'-deoxy-2'-β-fluoro-2-fluoroadenosine: A Highly Potent and Orally Available Clinical Candidate for the Treatment of HIV-1 Infection” (J Med Chem, 2023):

Experiments:
[1] = test system: Human immunodeficiency virus 1; assay: Antiviral activity against HIV1 IIIB infected in human MT4 cells assessed as inhibition of viral replication incubated for 3 to 7 days by MTT analysis; type: functional, organism-based; settings: Human immunodeficiency virus 1, IIIB
[2] = Acute toxicity in Sprague-Dawley rat assessed as effect on kidney damage at 500 to 2000 mg/kg, IG measured on day 15; type: organism-based; settings: in vivo, po, 360 h, dose 500-2000 mg/kg, time 15 day
[3] = Bioavailability in Sprague-Dawley rat at 2.5 mg/kg, IG measured upto 24 hrs by LC-MS/MS analysis; type: ADME, organism-based; settings: in vivo, po
[4] = AUC (0 to t) in male Sprague-Dawley rat at 10 mg/kg, IG measured at 0.5 hrs LC-MS/MS analysis; type: ADME, organism-based; design: dose 10 mg/kg, time 0.5 hrs, route ig; settings: in vivo, po
[5] = AUC (0 to t) in Sprague-Dawley rat at 10 mg/kg, IG measured upto 24 hrs by LC-MS/MS analysis; type: ADME, organism-based; design: dose 10 mg/kg, time < 24 hrs, route ig; settings: in vivo, po
[6] = Apparent oral clearance in Sprague-Dawley rat at 5 mg/kg, IG measured upto 24 hrs by LC-MS/MS analysis; type: ADME, organism-based; settings: in vivo
[7] = Cmax in Sprague-Dawley rat at 10 mg/kg, IG measured upto 24 hrs by LC-MS/MS analysis; type: ADME, organism-based; design: time < 24 hrs, dose 10 mg/kg, route ig; settings: in vivo, po
[8] = AUC (0 to t) in male Sprague-Dawley rat at 10 mg/kg, IG measured at 24 hrs LC-MS/MS analysis; type: ADME, organism-based; design: dose 10 mg/kg, time 24 hrs, route ig; settings: in vivo, po
[9] = Toxicity in po dosed Sprague-Dawley rat assessed as NOAEL administered once daily for 4 weeks and measured after 24 hrs post last dose; type: organism-based; settings: in vivo
[10] = test system: Human immunodeficiency virus 1; assay: Antiviral activity against HIV1 IIIB infected in human C8166 cells assessed as inhibition of viral replication by measuring reduction in p24 antigen level incubated for 3 to 7 days by ELISA analysis; type: functional, organism-based; settings: Human immunodeficiency virus 1, IIIB
[11] = Acute toxicity in Sprague-Dawley rat assessed as effect on brain damage at 500 to 2000 mg/kg, IG measured on day 15; type: organism-based; settings: in vivo, po, 360 h, dose 500-2000 mg/kg, time 15 day
[12] = test system: Human immunodeficiency virus 1; assay: Antiviral activity against HIV1 4755-5 infected in human C8166 cells assessed as inhibition of viral replication by measuring reduction in p24 antigen level incubated for 3 to 7 days by ELISA analysis; type: functional, organism-based; settings: Human immunodeficiency virus 1, 4755-5, C8166
[13] = Acute toxicity in Sprague-Dawley rat assessed as effect on lung damage at 500 to 2000 mg/kg, IG measured on day 15; type: organism-based; settings: in vivo, po, 360 h, dose 500-2000 mg/kg, time 15 day
[14] = Selectivity index, ratio of CC50 for cytotoxicity against HEK293T cells assessed as reduction in cell viability by MTT assay to EC50 for antiviral activity against HIV1 VSV-G pseudotyped virus infected in human HEK293T cells assessed as inhibition of viral growth; type: toxicity, cell-based; settings: read-out: Ratio CC50/EC50
[15] = Apparent oral clearance in Sprague-Dawley rat at 2.5 mg/kg, IG measured upto 24 hrs by LC-MS/MS analysis; type: ADME, organism-based; settings: in vivo
[16] = Tmax in Sprague-Dawley rat at 10 mg/kg, IG measured upto 24 hrs by LC-MS/MS analysis; type: ADME, organism-based; settings: in vivo, po
[17] = Cytotoxicity against HEK293T cells assessed as reduction in cell viability by MTT assay; type: toxicity, cell-based, HEK-293T; settings: human
[18] = test system: Human immunodeficiency virus 1; assay: Antiviral activity against HIV-1 harboring integrase G140S/Q148H double mutant infected in human TZM-bl cells assessed as inhibition of viral replication incubated for 3 to 7 days by luciferase assay; type: functional, organism-based; settings: Human immunodeficiency virus 1, TZM-bl
[19] = Half life in Sprague-Dawley rat at 10 mg/kg, IG measured upto 24 hrs by LC-MS/MS analysis; type: ADME, organism-based; settings: in vivo, po
[20] = Tmax in Sprague-Dawley rat at 2.5 mg/kg, IG measured upto 24 hrs by LC-MS/MS analysis; type: ADME, organism-based; settings: in vivo, po
[21] = AUC (0 to t) in female Sprague-Dawley rat at 10 mg/kg, IG measured at 24 hrs LC-MS/MS analysis; type: ADME, organism-based; design: time 24 hrs, dose 10 mg/kg, route ig; settings: in vivo, po
[22] = AUC (0 to t) in female Sprague-Dawley rat at 30 mg/kg, IG measured at 0.5 hrs LC-MS/MS analysis; type: ADME, organism-based; design: time 0.5 hrs, dose 30 mg/kg, route ig; settings: in vivo, po
[23] = Acute toxicity in Sprague-Dawley rat assessed as effect on spleen damage at 500 to 2000 mg/kg, IG measured on day 15; type: organism-based; settings: in vivo, po, 360 h, dose 500-2000 mg/kg, time 15 day
[24] = AUC (0 to t) in female Sprague-Dawley rat at 100 mg/kg, IG measured at 0.5 hrs LC-MS/MS analysis; type: ADME, organism-based; design: time 0.5 hrs, dose 100 mg/kg, route ig; settings: in vivo, po
[25] = AUC (0 to t) in female Sprague-Dawley rat at 10 mg/kg, IG measured at 0.5 hrs LC-MS/MS analysis; type: ADME, organism-based; design: time 0.5 hrs, dose 10 mg/kg, route ig; settings: in vivo, po
[26] = Apparent oral clearance in Sprague-Dawley rat at 10 mg/kg, IG measured upto 24 hrs by LC-MS/MS analysis; type: ADME, organism-based; settings: in vivo
[27] = test system: Human immunodeficiency virus 1; assay: Antiviral activity against HIV1 KIZ001 infected in human PBMC assessed as inhibition of viral replication by measuring reduction in p24 antigen level incubated for 3 to 7 days by ELISA analysis; type: functional, organism-based; settings: Human immunodeficiency virus 1, KIZ001, PBMC
[28] = Acute toxicity in Sprague-Dawley rat assessed as effect on heart damage at 500 to 2000 mg/kg, IG measured on day 15; type: organism-based; settings: in vivo, po, 360 h, dose 500-2000 mg/kg, time 15 day
[29] = test system: Human immunodeficiency virus 1; assay: Antiviral activity against HIV1 A17 infected in human C8166 cells assessed as inhibition of viral replication by measuring reduction in p24 antigen level incubated for 3 to 7 days by ELISA analysis; type: functional, organism-based; settings: Human immunodeficiency virus 1, A17, C8166
[30] = test system: Human immunodeficiency virus 1; assay: Antiviral activity against HIV1 IIIB infected in human C8166 cells assessed as inhibition of syncytia formation incubated for 3 to 7 days by syncytia assays; type: functional, organism-based; settings: Human immunodeficiency virus 1, IIIB
[31] = Toxicity in Sprague-Dawley rat assessed as effect on blood biochemistry at 10 to 30 mg/kg, po administered once daily for 4 weeks and measured after 24 hrs post last dose; type: organism-based; settings: in vivo, 696 h, dose 10-30 mg/kg
[32] = test system: Human immunodeficiency virus 1; assay: Antiviral activity against HIV1 NL4-3 infected in human C8166 cells assessed as inhibition of viral replication by measuring reduction in p24 antigen level incubated for 3 to 7 days by ELISA analysis; type: functional, organism-based; settings: Human immunodeficiency virus 1, NL4-3, C8166

## C#C[C@]1(CO)O[C@@H](n2cnc3c(N)nc(F)nc32)[C@@H](F)[C@@H]1O
[1]
  EC50: 1.22 nM
[2]
  Activity: Non-Toxic
[3]
  bioavailability: 64.2%
[4]
  AUC(0-t) at 0.5 h: 6860 ng·h/mL
[5]
  AUC(0-t) at 24 h: 8660 ng·h/mL
[6]
  CL/F: 25 mL/min/kg
[7]
  Cmax: 2110 ng/mL
[8]
  AUC(0-t) at 24 h: 8150 ng·h/mL
[9]
  NOAEL at 696 h: 30 mg/kg
[10]
  EC50: 6.5 nM
[11]
  Activity: Non-Toxic
[12]
  EC50: 32.4 nM
[13]
  Activity: Non-Toxic
[14]
  selectivity ratio: > 111000
[15]
  CL/F: 24.8 mL/min/kg
[16]
  Tmax: 1 h
[17]
  CC50: > 100000 nM
[18]
  EC50: 2.84 nM
[19]
  half-life: 2.3 h
[20]
  Tmax: 0.63 h
[21]
  AUC(0-t) at 24 h: 6800 ng·h/mL
[22]
  AUC(0-t) at 0.5 h: 22800 ng·h/mL
[23]
  Activity: Non-Toxic
[24]
  AUC(0-t) at 0.5 h: 87400 ng·h/mL
[25]
  AUC(0-t) at 0.5 h: 7020 ng·h/mL
[26]
  CL/F: 21.2 mL/min/kg
[27]
  EC50: 1.87 nM
[28]
  Activity: Non-Toxic
[29]
  EC50: 1.53 nM
[30]
  EC50: 3.51 nM
[31]
  Activity: Non-Toxic
[32]
  EC50: 1.18 nM
